{
  "source": "ChEMBL document CHEMBL1145569",
  "about": "“Design, synthesis, and evaluation of inhibitors of cathepsin L: Exploiting a unique thiocarbazate chemotype” (Bioorg Med Chem Lett, 2008)",
  "note": "Calls of active or inactive are those of the source. No cut-off for these calls is given here.",
  "data": [
    {"target": "Procathepsin L (Homo sapiens, UniProt P07711)", "assay": "Inhibition of human cathepsin L", "units": {"IC50": "µM"}, "values": [
      {"smiles": "CCc1ccccc1NC(=O)CSC(=O)NNC(=O)[C@H](Cc1ccccc1)NC(=O)OC(C)(C)C", "IC50": 0.115},
      {"smiles": "CC(C)(C)OC(=O)N[C@@H](Cc1c[nH]c2ccccc12)C(=O)NNC(=O)OCC(=O)N1CCCc2ccccc21", "IC50": 0.007},
      {"smiles": "CC(C)(C)OC(=O)N[C@@H](Cc1c[nH]c2ccccc12)C(=O)NNC(=O)SCC(=O)N1CCCc2ccccc21", "IC50": 0.041},
      {"smiles": "CC(C)(C)OC(=O)N[C@@H](Cc1c[nH]c2ccccc12)C(=O)NNC(=O)NCC(=O)N1CCCc2ccccc21", "IC50": 3},
      {"smiles": "CC(C)(C)OC(=O)N[C@@H](Cc1c[nH]c2ccccc12)C(=O)NNC(=O)SC1CCN(c2ccccc2)C1=O", "note": "(some centres undefined)", "IC50": 0.11},
      {"smiles": "COC(=O)CSC(=O)NNC(=O)[C@H](Cc1c[nH]c2ccccc12)NC(=O)OC(C)(C)C", "IC50": 0.201},
      {"smiles": "CCc1ccccc1NC(=O)CSC(=O)NNC(=O)CCc1c[nH]c2ccccc12", "IC50": 21.8},
      {"smiles": "CCc1ccccc1NC(=O)CSC(=O)NNC(=O)CNC(=O)OC(C)(C)C", "Activity": "inactive"},
      {"smiles": "CC(C)(C)OC(=O)N[C@@H](Cc1c[nH]c2ccccc12)C(=O)NNC(=O)CCC(=O)N1CCCc2ccccc21", "Activity": "inactive"}
    ]}
  ]
}
